Where a name gives a salt, the structure may show the parent alone.
What was measured:
[1] = target: JAK2 (Homo sapiens, UniProt O60674); experiment: Kinase-Lumi luminescent kinase assay; also in vitro kinase assay with recombinant JAK2 and STAT3, bead pull-down of recombinant protein, CETSA in AGS and HGC27 cells; assay type: biochemical
[2] = target: SRC (Homo sapiens, UniProt P12931); experiment: Kinase-Lumi luminescent kinase assay; also in vitro kinase assay with recombinant SRC and STAT3, bead pull-down of recombinant protein, CETSA in AGS and HGC27 cells; assay type: biochemical
Chain of SRC (P12931 2-536): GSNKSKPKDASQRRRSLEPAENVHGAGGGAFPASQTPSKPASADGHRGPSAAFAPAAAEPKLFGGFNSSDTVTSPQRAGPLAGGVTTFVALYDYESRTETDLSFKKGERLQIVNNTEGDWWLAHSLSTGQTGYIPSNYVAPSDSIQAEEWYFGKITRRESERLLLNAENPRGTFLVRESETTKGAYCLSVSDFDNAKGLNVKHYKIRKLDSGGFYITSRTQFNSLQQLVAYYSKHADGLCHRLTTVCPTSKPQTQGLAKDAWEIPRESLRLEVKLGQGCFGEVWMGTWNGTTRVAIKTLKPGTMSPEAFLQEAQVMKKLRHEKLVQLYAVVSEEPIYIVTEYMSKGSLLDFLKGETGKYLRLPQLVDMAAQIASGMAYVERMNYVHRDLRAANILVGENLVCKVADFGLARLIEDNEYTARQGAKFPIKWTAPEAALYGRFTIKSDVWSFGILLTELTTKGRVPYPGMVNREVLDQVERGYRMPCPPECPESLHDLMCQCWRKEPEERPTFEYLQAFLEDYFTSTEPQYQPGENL

Chain of JAK2 (O60674 whole entry): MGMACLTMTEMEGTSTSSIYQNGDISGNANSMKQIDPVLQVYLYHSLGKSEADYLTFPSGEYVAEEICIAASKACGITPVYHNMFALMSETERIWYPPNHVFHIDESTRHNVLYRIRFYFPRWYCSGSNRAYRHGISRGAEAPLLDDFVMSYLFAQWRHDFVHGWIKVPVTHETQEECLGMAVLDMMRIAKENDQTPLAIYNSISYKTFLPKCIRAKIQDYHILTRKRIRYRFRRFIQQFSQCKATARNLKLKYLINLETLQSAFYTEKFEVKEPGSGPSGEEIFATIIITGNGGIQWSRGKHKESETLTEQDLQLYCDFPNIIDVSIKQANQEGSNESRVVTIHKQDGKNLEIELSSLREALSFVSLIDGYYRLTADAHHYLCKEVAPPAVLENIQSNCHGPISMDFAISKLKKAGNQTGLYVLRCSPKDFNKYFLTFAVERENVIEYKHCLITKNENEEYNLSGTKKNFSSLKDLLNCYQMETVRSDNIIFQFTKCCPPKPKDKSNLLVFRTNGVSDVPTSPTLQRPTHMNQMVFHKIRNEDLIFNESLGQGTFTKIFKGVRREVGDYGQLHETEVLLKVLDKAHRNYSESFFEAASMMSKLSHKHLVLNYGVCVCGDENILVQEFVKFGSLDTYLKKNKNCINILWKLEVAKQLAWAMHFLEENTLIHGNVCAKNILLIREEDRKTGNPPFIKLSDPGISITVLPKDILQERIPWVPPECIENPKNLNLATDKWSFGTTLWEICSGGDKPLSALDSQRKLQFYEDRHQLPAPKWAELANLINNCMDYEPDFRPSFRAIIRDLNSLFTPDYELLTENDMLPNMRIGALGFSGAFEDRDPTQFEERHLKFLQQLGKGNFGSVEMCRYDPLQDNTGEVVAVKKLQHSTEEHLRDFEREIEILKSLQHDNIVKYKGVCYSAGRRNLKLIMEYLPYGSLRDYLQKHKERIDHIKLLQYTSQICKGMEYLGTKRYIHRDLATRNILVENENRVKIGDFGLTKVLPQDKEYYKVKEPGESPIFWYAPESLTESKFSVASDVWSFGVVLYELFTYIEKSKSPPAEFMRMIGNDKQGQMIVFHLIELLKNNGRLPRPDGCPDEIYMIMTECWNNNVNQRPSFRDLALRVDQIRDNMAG

IC50 [1]: 8.53 µM
IC50 [2]: 6.5 µM
Compound: Cc1ccc(Sc2ccccc2N2CCNCC2)c(C)c1 [vortioxetine hydrobromide]

From paper PMC10163056, “Vortioxetine hydrobromide inhibits the growth of gastric cancer cells in vivo and in vitro by targeting JAK2 and SRC” (Oncogenesis, 2023)
